The record followed here is PubChem BioAssay AID1508604 (National Center for Advancing Translational Sciences (NCATS), 2020).

The half-life is the time in which the quantity being followed falls by half.

The test system of the series is CD-1 mouse liver cytosol, LC/MS substrate depletion half-life. As to the kind of experiment: NCATS Mouse Liver Cytosol Stability Profiling. Conditions: at 1 µM; higher = more stable. The protocol: Assay submitter (PI): Pranav Shah Ph.D. NIH Center for Advancing Translational Sciences 9800 Medical Center Dr, Rockville MD, 20850 Over the last few decades, chemists have become skilled at designing compounds that avoid cytochrome P (CYP) 450 mediated metabolism. Typical screening assays are performed in liver microsomal fractions and it is possible to overlook the contribution of cytosolic enzymes until much later in the drug discovery process. Few data exist on cytosolic enzyme-mediated metabolism and no reliable tools are available to chemists to help design away from such liabilities. In this study, we screened 1450 compounds for liver cytosol-mediated metabolic stability and extracted transformation rules that might help medicinal chemists in optimizing compounds with these liabilities. […] Matched molecular pairs analysis was performed in conjunction with qualitative-structure activity relationship modeling to identify chemical structure transformations affecting cytosolic stability. The transformation rules were prospectively validated on the test set. In addition, selected rules were validated on a diverse chemical library and the resulting pairs were experimentally tested to confirm whether the identified transformations could be generalized. The validation results, comprising nearly 250 library compounds and corresponding half-life data, are made publicly available. The datasets were also used to generate in silico classification models, based on different molecular descriptors and machine learning methods, to predict cytosol-mediated liabilities. To the best of our knowledge, this is the first systematic in silico effort to address cytosolic enzyme-mediated liabilities (Shah 2020). Reference: Shah, P., Siramshetty, V.B., Zakharov, A.V. et al. Predicting liver cytosol stability of small molecules. J Cheminform 12, 21 (2020). https://doi.org/10.1186/s13321-020-00426-7
Compounds are classified as unstable (t 1/2 < 30 min) or stable (t 1/2 > 30 min). […] Reference: 1. Shah, P. et al. An Automated High-Throughput Metabolic Stability Assay Using an Integrated High-Resolution Accurate Mass Method and Automated Data Analysis Software. Drug Metab Dispos 44, 1653-1661 (2016). PMID 27417180

Consider `O=C1NC2(CCN(C(=O)c3ccc(Cl)c(F)c3)CC2)CC1c1ccccc1` (centres undefined), for which the half-life was 1.43 h.

On to `O=C1[C@H]2CN(Cc3ccc(Cl)c(F)c3)C[C@H]2C(=O)N1CCc1ccccc1`, for which the half-life amounted to 0.621 h.

As for `CN(C1CCOCC1)C1CCN(C(=O)c2ccn[nH]2)CC1`, the half-life is greater than 2 h.

For `CN(C1CCOCC1)C1CCN(C(=O)c2ccc(Cl)cc2)CC1`, the half-life is greater than 2 h.

In turn, `COCC1CN(Cc2ccc(Cl)c(F)c2)CC12CCNCC2` (centres undefined) came in with a half-life greater than 2 h.

The molecule `CCN1c2cc(C(=O)Nc3ccc(Cl)c(F)c3)ccc2C(=O)N2CCCCCC21` (centres undefined) came in with a half-life of 0.904 h.

`Cc1cccc(-c2noc([C@@H]3C[C@@H](O)CN3Cc3ccc(Cl)cc3)n2)c1` had a half-life of 0.394 h.

On to `CCN1c2cc(C(=O)Nc3ccc(Cl)cc3)ccc2C(=O)N2CCCCC21` (centres undefined), for which the half-life is 0.429 h.

Consider `Cc1ccc(-c2ccc3nnc(CNC(=O)c4ccc(Cl)cc4)n3n2)cc1`, for which the half-life is greater than 2 h.

In turn, `O=C1OCC2(CCN(Cc3ccn[nH]3)C2)N1CCN1CCOCC1` (centres undefined) came in with a half-life greater than 2 h.

For the molecule `COCC1CN(C(C)=O)CC12CCN(Cc1ccc(Cl)c(F)c1)CC2` (centres undefined), the half-life was 1.36 h.

As to `O=C(Nc1cccc(-c2nnc3n2CCCC3)c1)c1ccn[nH]1`, the half-life was greater than 2 h.

`OCC1(CN2CCCC2)CCN(Cc2ccc(Cl)cc2)CC1`: the half-life stood at 0.908 h.

Consider `Cc1noc(-c2nc(-c3ccc(Cl)cc3)no2)n1`, for which the half-life is 0.26 h.

As to `COc1ccc(CN2C[C@H]3CN(Cc4ccc(Cl)cc4)CCN3C2=O)cc1`, the half-life was 1.37 h.

`O=C1[C@H]2CN(Cc3ccc(Cl)c(F)c3)C[C@H]2C(=O)N1Cc1ccc2c(c1)OCO2` returned a half-life of 0.921 h.

With `O=C(Nc1ccc(-c2nnc3n2CCCC3)cc1)c1ccn[nH]1`, the half-life is greater than 2 h.

As for `O=C(Nc1ccc(-c2nnc3n2CCCC3)cc1)c1ccc(Cl)cc1`, the half-life turned out to be 1.95 h.

The molecule `O=C1OCC2(CCN(Cc3ccc(Cl)cc3)C2)N1CCN1CCOCC1` (centres undefined) showed a half-life greater than 2 h.

In turn, `Cn1c([C@H]2CCN(Cc3ccc(Cl)cc3)C2)nc2ccccc21` yielded a half-life greater than 2 h.

As for `CN(C)c1nc2c(c(=O)[nH]1)CCN(Cc1ccc(Cl)c(F)c1)CC2`, the half-life was greater than 2 h.

Molecule `COCC1CN(C(C)=O)CC12CCN(Cc1ccc(Cl)cc1)CC2` (centres undefined) returned a half-life greater than 2 h.

In turn, `O=c1[nH]c(N2CCOCC2)nc2c1CCN(Cc1ccc(Cl)cc1)CC2` had a half-life greater than 2 h.

With `COCC1CN(Cc2ccc(Cl)cc2)CC12CCNCC2` (centres undefined), the half-life is greater than 2 h.

As for `O=C1[C@H]2CN(Cc3ccc(Cl)cc3)C[C@H]2C(=O)N1CCc1ccccc1`, the half-life is 0.792 h.

Turning to `CN1c2cc(C(=O)Nc3ccc(Cl)c(F)c3)ccc2C(=O)N2CCCCC21` (centres undefined), the half-life was determined as 0.524 h.

On to `Cc1ccc2nc(CO[C@H]3CN(Cc4ccc(Cl)cc4)C[C@H]3F)[nH]c2c1`, for which the half-life is greater than 2 h.

As for `CN1CCN(c2nc3c(c(=O)[nH]2)CCN(Cc2ccc(Cl)cc2)CC3)CC1`, the half-life was greater than 2 h.

In turn, `COc1cc(=O)n2c(c1C(=O)Nc1ccc(Cl)c(F)c1)CCCC2` gave a half-life of 1.47 h.

Molecule `CN1c2cc(C(=O)Nc3ccc(Cl)cc3)ccc2C(=O)N2CCCCCC21` (centres undefined) came in with a half-life of 1.06 h.

As to `O=c1[nH]c(N2CCOCC2)nc2c1CCN(Cc1ccc(Cl)c(F)c1)CC2`, the half-life worked out at 1.54 h.

Consider `CN1CCN(c2nc3c(c(=O)[nH]2)CCN(Cc2ccc(Cl)c(F)c2)CC3)CC1`, for which the half-life is greater than 2 h.

With `CN1C(=O)CO[C@H]2CN(Cc3ccc(Cl)cc3)C[C@H]21`, the half-life amounted to 1.94 h.

`O=C1[C@H]2CN(Cc3ccc(Cl)cc3)C[C@H]2C(=O)N1Cc1ccc2c(c1)OCO2` registered a half-life of 1.11 h.

`CCOc1cc(=O)n2c(c1C(=O)Nc1ccc(Cl)c(F)c1)CCCC2`: the half-life is 1.34 h.

Regarding `COc1cccc(C(=O)NCC2CCCN(Cc3ccn[nH]3)C2)c1OC` (centres undefined), the half-life was greater than 2 h.

The molecule `CCOc1cc(=O)n2c(c1C(=O)Nc1ccc(Cl)cc1)CCCC2` returned a half-life of 1.57 h.

For `CCN1c2cc(C(=O)Nc3ccc(Cl)c(F)c3)ccc2C(=O)N2CCCCC21` (centres undefined), the half-life was found to be 0.412 h.

`COc1cccc(C(=O)NCC2CCCN(Cc3ccc(Cl)cc3)C2)c1OC` (centres undefined) came in with a half-life greater than 2 h.

`O=C1NC2(CCN(C(=O)c3ccc(Cl)cc3)CC2)CC1c1ccccc1` (centres undefined) registered a half-life greater than 2 h.

The molecule `FC(F)(F)c1ccc2nc([C@H]3CCN(Cc4ccc(Cl)cc4)C3)[nH]c2c1` yielded a half-life of 0.945 h.

As to `OCC1(CN2CCCC2)CCN(Cc2ccc(Cl)c(F)c2)CC1`, the half-life is 1.21 h.

`CN(Cc1cccnc1)c1nc2c(c(=O)[nH]1)CCN(Cc1ccc(Cl)cc1)CC2`: the half-life is 1.24 h.

Regarding `O=C(Nc1cccc(-c2nnc3n2CCCC3)c1)c1ccc(Cl)cc1`, the half-life was 0.941 h.

`CCN1c2cc(C(=O)Nc3ccc(Cl)cc3)ccc2C(=O)N2CCCCCC21` (centres undefined) gave a half-life of 0.935 h.

`CN1c2cc(C(=O)Nc3ccc(Cl)cc3)ccc2C(=O)N2CCCCC21` (centres undefined): the half-life was 1.39 h.

Consider `COc1cc(=O)n2c(c1C(=O)Nc1ccc(Cl)cc1)CCCC2`, for which the half-life was greater than 2 h.

`CN(C)c1nc2c(c(=O)[nH]1)CCN(Cc1ccc(Cl)cc1)CC2`: the half-life amounted to 1.91 h.

As to `CN1c2cc(C(=O)Nc3ccc(Cl)c(F)c3)ccc2C(=O)N2CCCCCC21` (centres undefined), the half-life came to 0.383 h.
